Data taken from ChEMBL document CHEMBL2434843, “Synthesis and evaluation of α-ketotriazoles and α,β-diketotriazoles as inhibitors of Mycobacterium tuberculosis” (Eur J Med Chem, 2013).
Values after ≈ are worked out from the molar mass of the structure shown.

What was measured:
Format in all cases: functional
[1] = test system: Mycobacterium tuberculosis; assay: Antitubercular activity against multidrug-resistant Mycobacterium tuberculosis IC2 assessed as growth inhibition by BACTEC MGIT 960 method
[2] = test system: Mycobacterium tuberculosis; assay: Antitubercular activity against multidrug-resistant Mycobacterium tuberculosis IC1 assessed as growth inhibition by BACTEC MGIT 960 method
[3] = test system: Mycobacterium tuberculosis; assay: Antitubercular activity against multidrug-resistant Mycobacterium tuberculosis IC3 assessed as growth inhibition by BACTEC MGIT 960 method

O=C(C(=O)c1ccc(Cl)cc1Cl)c1cn(Cc2ccccc2)nn1
MIC [1]: 7.6 µM (≈ 2.74 µg/mL) | MIC [2]: 7.6 µM (≈ 2.74 µg/mL) | MIC [3]: 7.6 µM (≈ 2.74 µg/mL)

COc1ccc(C(=O)C(=O)c2cn(Cc3ccccc3)nn2)cc1
MIC [1]: 6.9 µM (≈ 2.22 µg/mL) | MIC [2]: 6.9 µM (≈ 2.22 µg/mL) | MIC [3]: 6.9 µM (≈ 2.22 µg/mL)
